Reference: patent US20250313563A1, “GLYCOGEN SYNTHASE KINASE 3 INHIBITORS AND USES THEREOF” (The Broad Institute, Inc., priority 2022, published 2025)
Like-named read-outs stand apart in the source and are kept apart here.

Legend:
NanoLuc-GSK3α [1] = molecular target: T1, NanoLuc-GSK3α (Homo sapiens (Human), UniProt P49840); experiment: NanoBRET residence time, GSK3α; format: cell-based; settings: inhibitor at 10× IC50, BRET every 5 min for 3 hours
NanoLuc-GSK3α [2] = molecular target: T1, NanoLuc-GSK3α; experiment: NanoBRET live-cell target engagement assay, GSK3α; format: cell-based; settings: HEK293T cells, Tracer-8 at EC50
Procedure: (§1) HEK293T cells were transiently transfected with NanoLuc®-GSK3-alpha or NanoLuc®-GSK3-beta constructs using FuGene®-HD (Promega). Next day, the live cell NanoBRETTM target engagement assay was performed. […] Immediately prior to BRET measurements, NanoBRETTM Nano-Glo® Substrate and Extracellular NanoLuc® Inhibitor were added on cells and incubated for 2-3 minutes at room temperature. Donor emission at 450 nm and acceptor emission at 610 nm were measured using a EnVision plate reader. Raw BRET ratio values were calculated by dividing the acceptor emission value by the donor emission value for each sample. Raw BRET units were converted to milliBRET units (mBU) by multiplying each raw BRET value by 1000. mBU values for compound treatments were normalized to DMSO treatment. Ki values are calculated using the formula: Ki=(IC50)/(1+([Tracer]/EC50)). All experiments were performed as biological triplicates with three technical replications.
(§2) To further characterize the GSK3 inhibitor 837646, this compound was tested in a live-cell target engagement assay to investigate binding mode and residence time. […] In this assay, compound binding was quantified as loss of BRET signal from baseline due to competitive displacement of the tracer. […]

NanoLuc-GSK3β = NanoLuc-GSK3β (Homo sapiens (Human), UniProt P49841); experiment: NanoBRET live-cell target engagement assay, GSK3β; format: cell-based; settings: HEK293T cells, Tracer-8 at EC50
Procedure: as §1, §2

[3] = molecular target: GSK3α (GST-full length GSK3α) (Homo sapiens (Human), UniProt P49840); experiment: GSK3α TR-FRET kinase assay; format: biochemical
How it was run: (§3)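 Compound preincubated 30 min, then 1 nM GST-full-length GSK3α or GSK3b run 100 min at ambient temperature with 200 nM biotinylated, S645-prephosphorylated glycogen synthase 631-650 peptide in Tris pH 7.5, MgCl2, DTT, BSA, 1% DMSO. ATP 4 μM (α) or 2 μM (β), or 1 mM. EDTA-quenched; Tb-anti-pSer641/streptavidin-d2 TR-FRET 665/615 ratio gave IC50.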

human GSK3β = human GSK3β (Homo sapiens (Human), UniProt P49841); experiment: pThr231 tau phosphorylation plate-based assay in HEK-huTau cells transfected with GSK3β; format: cell-based; settings: HEK-huTau cells transfected with human GSK3β; 10-point dose response, 2 hours; read-out: GSK3β IC50 (inhibition of pThr231)
Procedure: (§4) HEK293 or SH-SY5Y cells were obtained from American Type Culture Collection (ATCC, Manassas, VA) and cultured in Dulbecco's modified Eagle's medium (DMEM) supplemented with 10% fetal bovine serum (FBS), 10 units/ml penicillin, and 10 μg/ml streptomycin (all reagents were purchased from Gibco, Waltham, MA). Cell cultures were maintained in a humidified 5% (v/v) CO2/air environment at 37° C. When the cells reached 50-80% confluence, they were transfected with a complex consisting of a 3:1 ratio of FuGENE 6 Transfection Reagent (Promega, Madison, WI) and plasmid DNA. Plasmid DNA was balanced out across reactions using an empty plasmid so that the same amount of DNA was added per well. This transfection complex was prepared following the manufacturers protocol and added directly to the cell media for 24 or 48 hours prior to lysis.
(§5) 293T cells stably expressing human 2N4R Tau were transfected with appropriate cDNA plasmids. 24 hours following transfection cells were treated with compound in a 10-point dose-response (from 1000× stocks of compound) and lysates harvested 2 hours later with cell extraction buffer (Life Technologies Cat #BN0001) or RIPA Buffer with Halt protease/phosphatase inhibitors added.
(§6) For pThr231 assay: Lysate was diluted 1:100 in assay buffer and Total Tau and pTau T231 was assessed by plate-based ELISA as per manufacturer instructions (MSD Cat #K15121D-1). Total fluorescence was measured using an Envison plate reader.
(§7) To test the potency and isoform selectivity of GSK3 small molecule inhibitors, HEK-huTau cells were transfected with plasmids containing either human GSK3α or GSK3β. Twenty-four hours after transfection, compounds were added at a 10-point dose response curve (at a range of 30 μM-3 nM) for a total of 2 hours, and cell lysates were probed for total tau and pThr231 using a plate-based assay.

GSK3α = GSK3α (Homo sapiens (Human), UniProt P49840); experiment: pThr231 tau phosphorylation plate-based assay in HEK-huTau cells transfected with GSK3α; format: cell-based
Procedure: as §4, §5, §6, §7

[4] = molecular target: GSK3b (GST-full length GSK3b) (Homo sapiens (Human), UniProt P49841); experiment: GSK3b TR-FRET kinase assay; format: biochemical
How it was run: as §3

[5] = test system: β-catenin nuclear translocation in SH-SY5Y cells; experiment: β-catenin translocation assay; format: cell-based; settings: SH-SY5Y cells
Procedure: SH-SY5Y cells were seeded into a 96-well CellCarrier Ultra (Perkin Elmer) plate at a density of 1×10^5 cells/ml in complete DMEM. Sixteen hours following plating, media was changed to DMEM with 2% serum, and compound was added with a D300e Digital Dispenser (Tecan) for an incubation time of six hours. After compound incubation, media was removed, and cells were fixed with 4% PFA for 10 minutes at room temperature. Each well was washed three times with PBS-T and then blocked with buffer (1×PBS with 5% Normal Goat Serum and 0.3% Triton X-100) for 30 minutes at room temperature. β-Catenin primary antibody (Cell Signaling #8480) was added at 1:500 dilution in blocking buffer and the cells were allowed to incubate in primary overnight at 4° C. The following day, primary antibody was removed, each well was washed three times with PBS-T, and secondary antibody (1:2000 anti-rabbit AlexaFluor Plus 488 and 1:10,000 Hoechst 33342) was added and allowed to incubate for 60 minutes at room temperature protected from light. After one-hour, secondary antibody was removed and wells were washed four times with PBS-T before imaging on the Opera Phenix. Sixteen fields per well were imaged with a 20× water lens.
Images were quantified in the Columbus Image Data Storage and Analysis software. Cells were identified using the Hoechst nuclear stain to identify individual nuclei. Intensity of the nuclear stain was also used to determine cell viability (Viable cells <30% CV of Hoechst Intensity)

T1 sequence (P49840 whole entry): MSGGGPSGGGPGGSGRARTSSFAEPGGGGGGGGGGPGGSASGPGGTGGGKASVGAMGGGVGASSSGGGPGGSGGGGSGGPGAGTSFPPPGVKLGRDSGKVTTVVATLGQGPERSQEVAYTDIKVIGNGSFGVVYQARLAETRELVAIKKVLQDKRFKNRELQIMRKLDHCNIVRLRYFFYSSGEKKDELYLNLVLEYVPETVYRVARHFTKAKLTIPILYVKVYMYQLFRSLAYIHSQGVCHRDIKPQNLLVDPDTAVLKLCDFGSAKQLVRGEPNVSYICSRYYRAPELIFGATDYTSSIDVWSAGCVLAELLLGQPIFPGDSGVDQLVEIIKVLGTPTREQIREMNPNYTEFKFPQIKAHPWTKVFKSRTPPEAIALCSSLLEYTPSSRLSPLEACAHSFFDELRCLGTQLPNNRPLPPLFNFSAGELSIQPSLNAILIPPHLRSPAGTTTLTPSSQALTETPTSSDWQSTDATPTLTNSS
GSK3α (GST-full length GSK3α), sequence (P49840 whole entry): as above
GSK3α, sequence (P49840 whole entry): as above
GSK3b (GST-full length GSK3b), sequence (P49841 whole entry): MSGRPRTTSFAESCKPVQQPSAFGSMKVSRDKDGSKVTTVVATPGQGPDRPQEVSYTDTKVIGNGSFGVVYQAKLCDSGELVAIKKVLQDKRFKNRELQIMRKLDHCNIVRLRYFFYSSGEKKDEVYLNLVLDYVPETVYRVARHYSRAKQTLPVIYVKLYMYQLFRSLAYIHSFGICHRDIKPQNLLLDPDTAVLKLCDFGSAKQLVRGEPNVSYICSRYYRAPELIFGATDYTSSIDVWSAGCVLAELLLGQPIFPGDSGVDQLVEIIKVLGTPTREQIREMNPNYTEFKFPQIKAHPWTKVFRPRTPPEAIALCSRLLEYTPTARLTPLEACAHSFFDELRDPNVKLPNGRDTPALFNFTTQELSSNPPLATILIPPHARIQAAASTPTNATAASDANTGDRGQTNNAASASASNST
human GSK3β, sequence (P49841 whole entry): as above
NanoLuc-GSK3β, sequence (P49841 whole entry): as above

residence time at GSK3α (NanoLuc-GSK3α [1]): significantly longer residence times
binding mode (competitive displacement of tracer), GSK3α (NanoLuc-GSK3α [2]): ATP-competitive and direct GSK3 binders
binding mode (competitive displacement of tracer), GSK3β (NanoLuc-GSK3β): ATP-competitive and direct GSK3 binders
IC50 ([3]; 1 nM GSK3α, 4 μM ATP, 30 minute preincubation, Table 16, read-out: GSK3-A TR-FRET BIOCHEMICAL (TR-FRET)): ≤ 0.1 µM
IC50 ([3]; read-out: GSK3-A (TR-FRET 1 mM ATP), GMean, IC50, 1 mM ATP, geometric mean): ≤ 0.1 µM
IC50 (human GSK3β): 1 µM
IC50 (GSK3α; HEK-huTau cells transfected with human GSK3α, 10-point dose response, 2 hours, read-out: GSK3α IC50 (inhibition of pThr231)): 0.096 µM
selectivity for GSK3α over GSK3β (GSK3α; pThr231 HEK-huTau assay, GSK3β IC50 / GSK3α IC50): 11 fold
IC50 ([4]; 1 nM GSK3b, 2 μM ATP, 30 minute preincubation, Table 16, read-out: GSK3-B TR-FRET BIOCHEMICAL (TR-FRET)): ≤ 0.1 µM
IC50 ([4]; read-out: GSK3-B (TR-FRET 1 mM ATP), GMean, IC50, 1 mM ATP, geometric mean): 0.1 to 1 µM
SMILES: CCC1(c2cccc(-c3c(F)cncc3OC)c2)C2=C(Nc3n[nH]cc31)C(F)C(C)(C)CC2=O (centres unmarked) [Compound 948546, 4-ethyl-8-fluoro-4-(3-(3-fluoro-5-methoxypyridin-4-yl)phenyl)-7,7-dimethyl-2,4,6,7,8,9-hexahydro-SH-pyrazolo[3,4-b]quinolin-5-one]
β-catenin nuclear translocation (in words) [5]: nuclear translocation of β-catenin occurred at concentrations in which both GSK3 paralogs are being inhibited
